Test results: patent US20040215021A1, “Stable lansoprazole containing more than 500 ppm, up to about 3,000 ppm water and more than 200 ppm, up to about 5,000 ppm alcohol” (priority 2002, published 2004)
Read-outs that look alike come from different tables or passages of the source. Values belong to the compound of their own block, whether it stands above or below them.

Key:
[1] = Stability of stabilized vs. non-stabilized 'solvent-free' lansoprazole (HPLC impurities, color); assay type: physicochemical; conditions: 3 months, 40° C., 75% humidity
Excerpt: (§1) Chromatographic purity method of lansoprazole is detailed in the monograph in USP Forum Vol.26(5) [September-October 2000].

[2] = Stability of lansoprazole under different storage conditions (HPLC impurities); assay type: physicochemical
Excerpt: The obtained lansoprazole is stable.
as §1

[3] = cited from earlier work

Color [1]: White | LNP-SO2 [1]: 0.02% | LNPS [1]: 0.03% | Total Impurities [1]: 0.08%
SMILES: Cc1c(OCC(F)(F)F)ccnc1C[S+]([O-])c1nc2ccccc2[nH]1 (centres unmarked) [Lansoprazole Stabilized With Ammonia]

LNP-SO2 ([2]; 1 month, 2-8° C.): 0.04% | LNPS ([2]; 1 month, 2-8° C.): 0.01% | Total Impurities ([2]; 1 month, 2-8° C.): 0.05% | LNP-SO2 ([2]; 1 month, 25° C., 60% humidity): 0.04% | LNPS ([2]; 1 month, 25° C., 60% humidity): 0.01% | Total Impurities ([2]; 1 month, 25° C., 60% humidity): 0.09% | LNP-SO2 ([2]; 2 month, 2-8° C.): 0.04% | LNPS ([2]; 2 month, 2-8° C.): 0.01% | Total Impurities ([2]; 2 month, 2-8° C.): 0.05% | LNP-SO2 ([2]; 2 month, 25° C., 60% humidity): 0.04% | LNPS ([2]; 2 month, 25° C., 60% humidity): 0.01% | Total Impurities ([2]; 2 month, 25° C., 60% humidity): 0.08% | LNP-SO2 ([2]; 2 weeks, 25° C., 60% humidity): 0.04% | LNPS ([2]; 2 weeks, 25° C., 60% humidity): <detection limit | Total Impurities ([2]; 2 weeks, 25° C., 60% humidity): 0.04% | LNP-SO2 ([2]; 3 month, 2-8° C.): 0.04% | LNPS ([2]; 3 month, 2-8° C.): <detection limit | Total Impurities ([2]; 3 month, 2-8° C.): 0.04% | LNP-SO2 ([2]; 3 month, 25° C., 60% humidity): 0.04% | LNPS ([2]; 3 month, 25° C., 60% humidity): <detection limit | Total Impurities ([2]; 3 month, 25° C., 60% humidity): 0.1% | LNP-SO2 ([2]; 6 month, 2-8° C.): 0.04% | LNPS ([2]; 6 month, 2-8° C.): <detection limit | Total Impurities ([2]; 6 month, 2-8° C.): 0.04% | LNP-SO2 ([2]; 6 month, 25° C., 60% humidity): 0.04% | LNPS ([2]; 6 month, 25° C., 60% humidity): <detection limit | Total Impurities ([2]; 6 month, 25° C., 60% humidity): 0.12% | LNP-SO2 ([2]; 9 month, 2-8° C.): 0.05% | LNPS ([2]; 9 month, 2-8° C.): <detection limit | Total Impurities ([2]; 9 month, 2-8° C.): 0.05% | LNP-SO2 ([2]; 9 month, 25° C., 60% humidity): 0.05% | LNPS ([2]; 9 month, 25° C., 60% humidity): 0.04% | Total Impurities ([2]; 9 month, 25° C., 60% humidity): 0.18% | LNPS ([2]; 12 month, 2-8° C.): <detection limit | Total Impurities ([2]; 12 month, 2-8° C.): 0.03% | LNP-SO2 ([2]; 12 month, 25° C., 60% humidity): 0.04% | LNPS ([2]; 12 month, 25° C., 60% humidity): 0.07% | Total Impurities ([2]; 12 month, 25° C., 60% humidity): 0.32% | Stability (in words) ([2]; product of Example 2, water 2,200 ppm, alcohol <50 ppm): stable | LNP-SO2 ([2]; time 0): 0.04% | LNPS ([2]; time 0): <detection limit | Total Impurities ([2]; time 0): 0.04%
SMILES: Cc1c(OCC(F)(F)F)ccnc1C[S+]([O-])c1nc2ccccc2[nH]1 (centres unmarked) [Lansoprazole, 2-[[[3-methyl-4-(2,2,2-trifluoro-ethoxy)-2-pyridinyl]methyl]sulfinyl]-1H-benzimidazole]
Color on storage ([3]; 4 months at 40° C. and 75% room humidity): pale brown | Color on storage ([3]; 4 months at 40° C., absence of humidity): pale yellowish brown

Color [1]: Brownish | LNP-SO2 [1]: 0.04% | LNPS [1]: 0.06% | Total Impurities [1]: 0.31%
SMILES: Cc1c(OCC(F)(F)F)ccnc1C[S+]([O-])c1nc2ccccc2[nH]1 (centres unmarked) [Lansoprazole Not Stabilized With Ammonia]

Stability (in words) ([2]; Example 4, wet product before drying, water about 2,200 ppm, ethanol about 300 to about 500 ppm expected): behave similarly to the dry lansoprazole
SMILES: Cc1c(OCC(F)(F)F)ccnc1C[S+]([O-])c1nc2ccccc2[nH]1 (centres unmarked) [wet lansoprazole product]
